Test results taken from ChEMBL document CHEMBL5244246, “Recent advances in chemistry and bioactivity of marine cyanobacteria Moorea species” (Eur J Med Chem, 2020).
In brackets after ≈: the same amount, converted by molar mass.

How the values were obtained:
[1] = Toxicity in brine shrimp assessed as lethal dose; conditions: artemia salina; read-out: LD50 (the source's name)
[2] = tested on: A549; assay: Cytotoxicity against human A549 cells assessed as cell growth inhibition; format: functional, cell-based
[3] = tested on: HT-29; assay: Cytotoxicity against human HT-29 cells assessed as cell growth inhibition; format: functional
[4] = tested on: MDA-MB-231; assay: Cytotoxicity against human MDA-MB-231 cells assessed as cell growth inhibition; format: functional
[5] = tested on: Mycobacterium tuberculosis; assay: Antimycobacterial activity against Mycobacterium tuberculosis H37Rv assessed as inhibition of bacterial growth at 12.5 ug/ml relative to control; format: functional
[6] = tested on: Nitzschia amabilis; assay: Growth inhibition of marine diatom assessed as inhibition rate at 10 ug/ml relative to control; format: functional
[7] = tested on: L1210; assay: Cytotoxicity against mouse L1210 cells assessed as inhibition of cell growth; format: functional, cell-based
[8] = Toxicity in shrimp assessed as lethal dose; conditions: palaemon paucidens
[9] = tested on: N2a; assay: Cytotoxicity against mouse Neuro2a cells assessed as inhibition of cell growth; format: functional, cell-based; conditions: Mus musculus, N2a
[10] = tested on: NCI-H460; assay: Cytotoxicity against human NCI-H460 cells; format: functional, cell-based
[11] = target: Protein kinase C delta type (Homo sapiens, UniProt Q05655); assay: Inhibition of [3H]-PDBu binding to PKCdelta C1B domain (unknown origin) by competitive binding assay
Chain of Protein kinase C delta type (Q05655 whole entry, the tested form may be a part): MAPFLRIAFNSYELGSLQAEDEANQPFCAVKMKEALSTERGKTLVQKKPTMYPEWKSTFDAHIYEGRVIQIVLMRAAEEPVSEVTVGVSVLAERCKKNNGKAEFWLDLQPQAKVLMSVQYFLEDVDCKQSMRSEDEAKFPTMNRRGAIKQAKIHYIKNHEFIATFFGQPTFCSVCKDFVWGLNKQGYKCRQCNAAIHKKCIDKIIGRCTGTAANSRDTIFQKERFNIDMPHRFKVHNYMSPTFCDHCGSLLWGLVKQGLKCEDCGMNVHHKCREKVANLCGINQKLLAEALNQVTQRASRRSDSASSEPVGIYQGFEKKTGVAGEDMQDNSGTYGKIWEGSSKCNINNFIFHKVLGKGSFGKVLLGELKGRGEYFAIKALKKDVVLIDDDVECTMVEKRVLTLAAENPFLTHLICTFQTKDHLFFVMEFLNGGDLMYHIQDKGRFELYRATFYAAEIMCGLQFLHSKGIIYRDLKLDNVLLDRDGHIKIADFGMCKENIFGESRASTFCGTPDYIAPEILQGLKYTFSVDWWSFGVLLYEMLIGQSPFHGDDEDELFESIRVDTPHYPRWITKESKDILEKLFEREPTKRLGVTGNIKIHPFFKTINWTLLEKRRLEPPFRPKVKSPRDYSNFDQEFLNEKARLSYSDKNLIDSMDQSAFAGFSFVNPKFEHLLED

[12] = tested on: L1210; assay: Cytotoxicity against mouse L1210 cells assessed as inhibition of cell growth at 10 ug/mL relative to control; format: functional
[13] = tested on: MCF7; assay: Cytotoxicity against human MCF7 cells assessed as inhibition of cell growth; format: functional, cell-based

## CCCCCCCCCCC[C@]1(CO)CCCC(=O)O1 [TANIKOLIDE]
[1]
  LC50: 3.6 µg/mL

## CCCCCCC[C@@H](C/C=C/CCC(=O)N(C)C/C(=C\Cl)C/C(=C\C(=O)N1CC=CC1=O)OC)OC
[2]
  GI50: 40 µM
[3]
  GI50: 40 µM
[4]
  GI50: 40 µM
[5]
  inhibition at 12.5 µg/mL: 10%

## CO[C@@H](CC[C@H](C)[C@@H]1CC=C[C@]2(O1)[C@H](C(=O)O[C@@H]1CC(=O)O[C@@H]1C)C(=O)[C@H](C)CC2(C)C)c1cc(O)ccc1Br
[6]
  inhibition at 10 µg/mL: 30%

## CCCCCCCCCCCCCC/C=C/CCC1OC1C(=O)N[C@H](C)CO (some centres not stated)
[1]
  LC50: 13 µM

## CO[C@@H](CC[C@H](C)[C@H]1OC2=C(/C(=C/C(=O)O[C@@H]3CC(=O)O[C@@H]3C)[C@H](C)CC2(C)C)[C@H](OC)[C@@H]1C)c1cc(O)ccc1Br
[6]
  inhibition at 10 µg/mL: 30%

## CO[C@@H](CC[C@H](C)[C@H]1O[C@@]23C[C@H](OC(=O)C[C@H]([C@@H](C)O)OC(=O)C[C@](O)(O2)[C@H](C)CC3(C)C)[C@@H]1C)c1cccc(O)c1 [DEBROMOAPLYSIATOXIN]
[6]
  inhibition at 10 µg/mL: 30%

## CCCCCCCCC(O)C/C=C/CCC(=O)N(C)C/C(=C\Cl)C/C(=C\C(=O)N1CC(OC)=CC1=O)OC (configuration not stated)
[7]
  IC50: 2.9 µM
[8]
  LD50: 33.3 mg/kg

## CO/C(=C/C(=O)N1C(=O)C=C[C@@H]1C)CCNC(=O)CC/C=C/C(C)CC/C(=C\Cl)CCCC#CBr (some centres not stated)
[9]
  IC50: 15 µM
[10]
  IC50: 15 µM

## C=C[C@@](C)(CCC=C(C)C)c1ccc2c3c1NC(=O)[C@@]3(O)C[C@@H](CO)NC(=O)[C@@H](C(C)C)N2C
[7]
  IC50: 98 µM
[8]
  LD33: 89 mg/kg
[11]
  Ki: 1.4 µM

## CC[C@H](C)[C@H]1C(=O)N(C)[C@@H](C)C(=O)O[C@H](C(C)(C)C)C[C@@H](C)C[C@H](O)[C@H](C)C2=NC(/C=C(\C)C(=O)N[C@@H](Cc3ccc(OC)cc3)C(=O)N(C)[C@@H](C)C(=O)N1C)CS2 (some centres not stated)
[10]
  IC50: 0.002 µM

## CCCCCCCC[C@@H](C/C=C/CCC(=O)N(C)C/C(=C\Cl)C/C(=C\C(=O)N1C[C@H](O)CC1=O)OC)OC
[7]
  IC50: 2.9 µM

## COC(=O)[C@H](CCC#CC=C(Cl)Cl)[C@@H](CCCC#CCC(Cl)Cl)NC=O
[1]
  LC50: 1.7 µg/mL

## CO[C@@H](CC[C@H](C)[C@H]1O[C@@]23C[C@H](OC(=O)C[C@H]([C@@H](C)O)OC(=O)/C=C(\O2)[C@@](C)(O)CC3(C)C)[C@@H]1C)c1cc(O)ccc1Br
[12]; Mus musculus, L1210, dose 10 µg/ml
  inhibition at 10 µg/mL: 10%
[12]; dose 10 µg/ml
  inhibition (INH): 20%
[6]
  inhibition at 10 µg/mL: 30%

## CCCCCCC[C@@H](C/C=C/CCC(=O)O)OC
[2]
  GI50: 40 µM
[3]
  GI50: 40 µM
[4]
  GI50: 40 µM
[5]
  inhibition at 12.5 µg/mL: 65%

## CCCCCCCC[C@@H](C/C=C/CCC(=O)NC/C(=C/Cl)[C@]12O[C@H]1[C@H](O)CCC2=O)OC
[9]
  IC50: 4 µM
[10]
  IC50: 4 µM

## CCCCCCC[C@@H](C/C=C/CCC(=O)N(C)C/C(=C/Cl)C/C(=C\C(=O)N1CC(OC)=CC1=O)OC)OC
[2]
  GI50: 40 µM
[3]
  GI50: 40 µM
[4]
  GI50: 40 µM
[5]
  inhibition at 12.5 µg/mL: 10%

## COc1ccc(C[C@@H]2NC(=O)/C(C)=C/C3CSC(=N3)[C@@H](C)[C@@H](O)C[C@H](C)C[C@@H](C(C)(C)C)OC(=O)[C@H](C)N(C)C(=O)[C@H](C(C)C)N(C)C(=O)[C@H](C)N(C)C2=O)cc1 (some centres not stated)
[10]
  IC50: 0.014 µM

## COC(=O)C(CCC#CC=C(Cl)Cl)C(CCC/C=C/CC(Cl)Cl)NC=O (configuration not stated)
[1]
  LC50: 1.7 µg/mL

## CCCCCCCCCCCC/C=C/C[C@@H](O)[C@H](CO[C@@H]1O[C@H](CO)[C@@H](O)[C@H](O)[C@H]1O)NC(=O)CCCCCCCCCCCCCCCCCCCCCCCCC
[13]
  IC50: 18.2 µg/mL (≈ 21.7 µM)

## CO[C@@H](CC[C@H](C)[C@H]1O[C@]23C[C@H](OC(=O)C[C@H]([C@@H](C)O)OC(=O)CC(=C(C)CC2(C)C)O3)[C@@H]1C)c1cc(O)ccc1Br
[6]
  inhibition at 10 µg/mL: 30%

## C=C[C@@](C)(CCC=C(C)C)c1ccc2c3c(c[nH]c13)C[C@@H](CO)NC(=O)[C@@H](C(C)C)N2C
[7]
  IC50: 20.4 µM
[8]
  LD100: 7.5 mg/kg
[11]
  Ki: 0.017 µM

## CCCCCCCC[C@@H](C/C=C/CCC(=O)N(C)C/C(=C\Cl)C/C(=C\C(=O)N1CC(OC)=CC1=O)OC)OC
[7]
  IC50: 2.9 µM

## CO[C@@H](CC[C@H](C)[C@H]1O[C@@]23C[C@H](OC(=O)C[C@H]([C@@H](C)O)OC(=O)/C=C(\O2)[C@@](C)(OO)CC3(C)C)[C@@H]1C)c1cc(O)ccc1Br
[6]
  inhibition at 10 µg/mL: 30%

## COC(=O)C(CCC#CC=C(Cl)Cl)C(CCCC#CCC(Cl)Cl)NC=O (configuration not stated)
[1]
  LC50: 1.7 µg/mL
